Experimental data reported in PubChem BioAssay AID1259407 (Chemical Carcinogenesis Research Information System (CCRIS), 2018).
The source made the active and inactive calls. No rule for the calls is given here.

System: CCRIS mutagenicity, Ames/micronucleus/aberration tests
Assay: CCRIS mutagenicity studies
[1] = Test System: AMES SALMONELLA TYPHIMURIUM, Strain/Indicator: TA100, Metabolic Activation: NONE, Method: PREINCUBATION

SMILES: c1ccc2c(c1)ccc1ccccc12
- mutagenic call (Test System: AMES SALMONELLA TYPHIMURIUM, Strain/Indicator: TA97, Metabolic Activation: HAMSTER, LIVER, S-9, AROCLOR 1254 (10%), Method: PREINCUBATION): inactive; negative
- mutagenic call (Test System: AMES SALMONELLA TYPHIMURIUM, Strain/Indicator: TA97, Metabolic Activation: NONE, Method: PREINCUBATION): inactive; negative
- mutagenic call (Test System: AMES SALMONELLA TYPHIMURIUM, Strain/Indicator: TA97, Metabolic Activation: NONE, Method: STANDARD PLATE): inactive; negative
- mutagenic call (Test System: AMES SALMONELLA TYPHIMURIUM, Strain/Indicator: TA97, Metabolic Activation: RAT, LIVER, S-9, AROCLOR 1254 (10%), Method: PREINCUBATION): inactive; negative
- mutagenic call (Test System: AMES SALMONELLA TYPHIMURIUM, Strain/Indicator: TA97, Metabolic Activation: RAT, LIVER, S-9, PCB, Method: STANDARD PLATE): active; positive
- mutagenic call (Test System: AMES SALMONELLA TYPHIMURIUM, Strain/Indicator: TA98, Metabolic Activation: HAMSTER, LIVER, S-9, AROCLOR 1254 (10%), Method: PREINCUBATION): inactive; negative
- mutagenic call (Test System: AMES SALMONELLA TYPHIMURIUM, Strain/Indicator: TA98, Metabolic Activation: NONE, Method: PREINCUBATION): inactive; negative
- mutagenic call (Test System: AMES SALMONELLA TYPHIMURIUM, Strain/Indicator: TA98, Metabolic Activation: NONE, Method: STANDARD PLATE): inactive; negative
- mutagenic call (Test System: AMES SALMONELLA TYPHIMURIUM, Strain/Indicator: TA98, Metabolic Activation: RAT, LIVER, S-9, AROCLOR 1254 (10%), Method: PREINCUBATION): inactive; negative
- mutagenic call (Test System: AMES SALMONELLA TYPHIMURIUM, Strain/Indicator: TA98, Metabolic Activation: RAT, LIVER, S-9, AROCLOR 1254, Method: STANDARD PLATE): inactive; negative
- mutagenic call (Test System: AMES SALMONELLA TYPHIMURIUM, Strain/Indicator: TA98, Metabolic Activation: RAT, LIVER, S-9, PCB, Method: STANDARD PLATE): inactive; negative
- mutagenic call (Test System: AMES SALMONELLA TYPHIMURIUM, Strain/Indicator: TA100, Metabolic Activation: HAMSTER, LIVER, S-9, AROCLOR 1254 (5 OR 30%), Method: PREINCUBATION): inactive; negative
- mutagenic call (Test System: AMES SALMONELLA TYPHIMURIUM, Strain/Indicator: TA100, Metabolic Activation: HAMSTER, LIVER, S-9, AROCLOR 1254 (10%), Method: PREINCUBATION): inactive; negative
- mutagenic call [1]: inactive; negative
- mutagenic call (Test System: AMES SALMONELLA TYPHIMURIUM, Strain/Indicator: TA100, Metabolic Activation: NONE, Method: STANDARD PLATE): inactive; negative
- mutagenic call (Test System: AMES SALMONELLA TYPHIMURIUM, Strain/Indicator: TA100, Metabolic Activation: RAT, LIVER, S-9, AROCLOR 1254 (5%), Method: PREINCUBATION): inactive; negative
- mutagenic call (Test System: AMES SALMONELLA TYPHIMURIUM, Strain/Indicator: TA100, Metabolic Activation: RAT, LIVER, S-9, AROCLOR 1254 (10%), Method: PREINCUBATION): inactive; negative
- mutagenic call (Test System: AMES SALMONELLA TYPHIMURIUM, Strain/Indicator: TA100, Metabolic Activation: RAT, LIVER, S-9, AROCLOR 1254, Method: STANDARD PLATE): active; positive
- mutagenic call (Test System: AMES SALMONELLA TYPHIMURIUM, Strain/Indicator: TA100, Metabolic Activation: RAT, LIVER, S-9, PCB, Method: STANDARD PLATE): inactive; negative
- mutagenic call (Test System: AMES SALMONELLA TYPHIMURIUM, Strain/Indicator: TA1535, Metabolic Activation: HAMSTER, LIVER, S-9, AROCLOR 1254 (10%), Method: PREINCUBATION): inactive; negative
- mutagenic call (Test System: AMES SALMONELLA TYPHIMURIUM, Strain/Indicator: TA1535, Metabolic Activation: NONE, Method: PREINCUBATION): inactive; negative
- mutagenic call (Test System: AMES SALMONELLA TYPHIMURIUM, Strain/Indicator: TA1535, Metabolic Activation: RAT, LIVER, S-9, AROCLOR 1254 (10%), Method: PREINCUBATION): inactive; negative
- mutagenic call (Test System: AMES SALMONELLA TYPHIMURIUM, Strain/Indicator: TA1535, Metabolic Activation: RAT, LIVER, S-9, AROCLOR 1254, Method: STANDARD PLATE): active; positive
- mutagenic call (Test System: E. COLI, Strain/Indicator: WP2 UVRA, Metabolic Activation: HAMSTER, LIVER, S-9, AROCLOR 1254, Method: STANDARD PLATE): inactive; negative
- mutagenic call (Test System: E. COLI, Strain/Indicator: WP2 UVRA, Metabolic Activation: HAMSTER, LIVER, S-9, Method: STANDARD PLATE): inactive; negative
- mutagenic call (Test System: E. COLI, Strain/Indicator: WP2 UVRA, Metabolic Activation: MOUSE, LIVER, S-9, AROCLOR 1254, Method: STANDARD PLATE): inactive; negative
- mutagenic call (Test System: E. COLI, Strain/Indicator: WP2 UVRA, Metabolic Activation: MOUSE, LIVER, S-9, Method: STANDARD PLATE): inactive; negative
- mutagenic call (Test System: E. COLI, Strain/Indicator: WP2 UVRA, Metabolic Activation: NONE, Method: STANDARD PLATE): inactive; negative
- mutagenic call (Test System: E. COLI, Strain/Indicator: WP2 UVRA, Metabolic Activation: RAT, LIVER, S-9, AROCLOR 1254, Method: STANDARD PLATE): inactive; negative
- mutagenic call (Test System: E. COLI, Strain/Indicator: WP2 UVRA, Metabolic Activation: RAT, LIVER, S-9, Method: STANDARD PLATE): inactive; negative
- mutagenic call (Test System: UDS RAT HEPATOCYTES, Strain/Indicator: BROMODEOXYURIDINE INCORP, Metabolic Activation: NONE, Method: FLOW CYTOMETRIC ANALYSIS): inactive; negative

SMILES: [Si]
- mutagenic call (Test System: AMES SALMONELLA TYPHIMURIUM, Strain/Indicator: TA98, Metabolic Activation: RAT LIVER S-9, PHENOBARBITAL AND BETA-NAPHTHOFLAVONE, Method: GAS EXPOSURE): active; positive
- mutagenic call (Test System: AMES SALMONELLA TYPHIMURIUM, Strain/Indicator: TA98, Metabolic Activation: RAT, LIVER, S-9, PHENOBARBITAL AND 5,6-BENZOFLAVONE, Method: GAS EXPOSURE): active; positive
- mutagenic call (Test System: AMES SALMONELLA TYPHIMURIUM, Strain/Indicator: TA100, Metabolic Activation: NONE, Method: GAS EXPOSURE): inactive; negative
- mutagenic call (Test System: AMES SALMONELLA TYPHIMURIUM, Strain/Indicator: TA100, Metabolic Activation: RAT LIVER S-9, PHENOBARBITAL AND BETA-NAPHTHOFLAVONE, Method: GAS EXPOSURE): inactive; negative
- mutagenic call (Test System: AMES SALMONELLA TYPHIMURIUM, Strain/Indicator: TA100, Metabolic Activation: RAT, LIVER, S-9, PHENOBARBITAL AND 5,6-BENZOFLAVONE, Method: GAS EXPOSURE): inactive; negative
- mutagenic call (Test System: AMES SALMONELLA TYPHIMURIUM, Strain/Indicator: TA1535, Metabolic Activation: NONE, Method: GAS EXPOSURE): inactive; negative
- mutagenic call (Test System: AMES SALMONELLA TYPHIMURIUM, Strain/Indicator: TA1535, Metabolic Activation: RAT LIVER S-9, PHENOBARBITAL AND BETA-NAPHTHOFLAVONE, Method: GAS EXPOSURE): inactive; negative
- mutagenic call (Test System: AMES SALMONELLA TYPHIMURIUM, Strain/Indicator: TA1535, Metabolic Activation: RAT, LIVER, S-9, PHENOBARBITAL AND 5,6-BENZOFLAVONE, Method: GAS EXPOSURE): inactive; negative
- mutagenic call (Test System: AMES SALMONELLA TYPHIMURIUM, Strain/Indicator: TA1537, Metabolic Activation: RAT, LIVER, S-9, PHENOBARBITAL AND 5,6-BENZOFLAVONE, Method: GAS EXPOSURE): active; positive
- mutagenic call (Test System: E. COLI, Strain/Indicator: WP2 UVRA, Metabolic Activation: NONE, Method: GAS EXPOSURE): inactive; negative
- mutagenic call (Test System: E. COLI, Strain/Indicator: WP2 UVRA, Metabolic Activation: RAT, LIVER, S-9, PHENOBARBITAL AND 5,6-BENZOFLAVONE, Method: GAS EXPOSURE): inactive; negative
- mutagenic call (Test System: E.COLI, Strain/Indicator: WP2UVRA, Metabolic Activation: NONE, Method: GAS EXPOSURE): inactive; negative
- mutagenic call (Test System: E.COLI, Strain/Indicator: WP2UVRA, Metabolic Activation: RAT LIVER S-9, PHENOBARBITAL AND BETA-NAPHTHOFLAVONE, Method: GAS EXPOSURE): inactive; negative

SMILES: Cc1cc([N+](=O)[O-])ccc1N
- mutagenic call (End Point: IN VITRO CHROMOSOMAL ABERRATIONS, Test System: CHL CELLS, Metabolic Activation: NONE): active; positive (ploidy changes)
- mutagenic call (End Point: IN VITRO CHROMOSOMAL ABERRATIONS, Test System: CHL CELLS, Metabolic Activation: RAT, LIVER, S-9, SODIUM PHENOBARBITAL AND 5,6-BENZOFLAVONE): inactive; negative; authors report equivocal results for ploidy changes at 0.25 mg/ml and
- mutagenic call (End Point: IN VITRO CHROMOSOMAL ABERRATIONS, Test System: CHL/IU CELLS, Metabolic Activation: NONE): active; positive (numerical aberrations)
- mutagenic call (End Point: IN VITRO MICRONUCLEUS, Test System: CHL/IU CELLS, Metabolic Activation: NONE): inactive; negative
- mutagenic call (Test System: AMES SALMONELLA TYPHIMURIUM, Strain/Indicator: TA98, Metabolic Activation: RAT, LIVER, S-9, PCB, Method: PREINCUBATION): inactive; negative
- mutagenic call [1]: inactive; negative
- mutagenic call (Test System: AMES SALMONELLA TYPHIMURIUM, Strain/Indicator: TA100, Metabolic Activation: RAT, LIVER, S-9, KANECHLOR 500, Method: PREINCUBATION): inactive; negative
- mutagenic call (Test System: UDS RODENT HEPATOCYTES, Strain/Indicator: THY INCORP (NON-S-PHASE), Metabolic Activation: NONE, Method: AUTORADIOGRAPHY): inactive; negative
